Results: patent publication US20220177587A1, “METHODS AND USES OF VARIANT CD80 FUSION PROTEINS AND RELATED CONSTRUCTS” (Alpine Immune Sciences, Inc., priority 2018, published 2022)

What was measured:
[1] = tested on: human PD-L1-transduced MC38 tumor; assay: huPD-L1 MC38 tumor model, combination with anti-PD-L1 or anti-CD28 blocking antibodies; type: in vivo, mouse
Procedure: Anti-tumor activity was evaluated by serial tumor measurements.

PD-L1/PD-1 interaction = biological target: T1, PD-L1/PD-1 interaction (Homo sapiens, UniProt Q9NZQ7); assay: PD-L1/PD-1 binding and blocking on CHO/PD-L1 cells; conditions: fluorescently conjugated PD-1-Fc; FIG. 7
T1 construct: expressed in transfected cells
Procedure: Binding of selected immunomodulatory fusion proteins to cells expressing PD-L1 was assessed to test for blocking of the PD-L1/PD-1 interaction. […] Samples were acquired on a flow cytometer and MFIs of the fluorescently labeled PD-1 were determined by Flowjo software analysis.
The multivalent variant CD80 IgSF domain fusion proteins were assessed to test for blocking of the PD-L1/PD-1 and CTLA-4/CD80 interaction performed substantially as described in Example 15. CHO/OKT3/PD-L1 and CHO/CTLA-4 cells were counted and plated at 100,000 cells/well and then incubated with fluorescently conjugated PD-1-Fc and CD80-Fc. Exemplary multivalent variant CD80 IgSF domain fusion proteins were incubated with the cells for 30 minutes. […] Cells were washed and incubated with 100 nM fluorescently conjugated PD-1-Fc and CD80-Fc competitor for 30 minutes. Cells were then washed and samples were acquired on a flow cytometer and MFIs of the fluorescently labeled molecules were determined.

MC38 hPD-L1 tumor cells [2] = assay: Flow cytometry of tumors and draining lymph nodes of treated mice; type: in vivo, mouse; conditions: three days following the 2nd dose; vs Fc control or anti-PD-L1
From the text: Tissues were processed to single cell suspensions (tumors were enzymatically digested as a part of the processing, whereas draining LN were not), and subjected to multi-color flow cytometric analysis of CD8+ T cells on the CD45+ cell subset (immune cells in either the LN or tumor), as well as % hIgG+ staining on the CD45− cell subset (tumor cells) to detect molecules (CD80-IgV-Fc or anti-PD-L1) bound to the tumor cells.

MC38 hPD-L1 tumor cells [3] = assay: MC38 hPD-L1 tumor model in C57BL/6 mice; type: in vivo, mouse
Procedure: Mouse MC38 tumor cells were stably transfected with human PD-L1 (MC38 hPD-L1) and implanted subcutaneously into C57BU6 mice. […] Tumor volume was tracked over time.
70 female C57CL/6 mice, containing similar tumor volumes of approximately 50-51 mm^3, following implantation of MC38 hPD-L1 tumor cells, were staged and divided into 5 treatment groups containing 14 mice each. […] Tumor volumes were measured on days 7, 10, and 12. On day 13, 5 animals were sacrificed for analysis as described in the sections below. Tumor measurements resumed for the remaining 9 mice for each group on days 17, 20 and 27. On days 26, 28, and 31, the animals in Group 1 (Fc isotype control) received an intratumoral injection of 100 μg E35D/M47L CD80-IgV-Fc.
95 female C57BU6 mice were implanted with MC38 hPD-L1 tumor cells. The tumors were staged on Day 7, and 77 mice with similar tumor volumes of approximately 60 mm^3 were divided into 7 treatment groups containing 11 mice each.
On day 49, tumor-free mice, from Groups 3, 4, 6, and 7, and 2 naïve C57CL/6 mice were re-challenged with an additional injection of hPD-L1 MC38 cells. Tumor volumes were measured on days 56, 59, and 63. The results are depicted in FIG. 13. […] At day 59, 8/8 mice from Group 3, 1/2 mice from Group 4, 1/1 mouse from Group 6, and 2/2 mice from Group 7 were tumor-free, and by day 63, all mice in Group 3, Group 4, Group 6, and Group 7 were tumor-free.
75 animals were staged into 3 treatment groups 7 days after implantation with hPD-L1 MC38 tumor cells. […] Tumor volumes were measured every 3-4 days, from Day 11 until Day 35. 3 days after the 1st dose, 2nd dose and 3rd dose, 4 mice from each group were sacrificed for tumor and LN analyses, leaving 13 mice for tumor volume measurements throughout the study period.

huPD-L1/MC38 cells = assay: huPD-L1 MC38 tumor model, combination with anti-CTLA-4; type: in vivo, mouse
Procedure: Eight-week old female C57/BL6NJ mice (The Jackson Laboratories, Sacramento, Calif.) were implanted subcutaneously with 1.5×10^6 huPD-L1/MC38 cells (described in Example 27. On days 8, 11 or 14 post-tumor cell implant mice, the tested molecules were delivered through intraperitoneal (IP) injection as set forth in Table E40. Tumor volume was determined substantially as described in Example 27.

CD28 = CD28 (Homo sapiens, UniProt P10747); assay: Jurkat/IL2 + K562/OKT3/PD-L1 reporter assay; type: cell-based; parameters: host or cells: Jurkat cells expressing an IL-2-luciferase reporter; conditions: IgV-Fc (inert); various concentrations; FIG. 5
[4] = tested on: PBMC obtained from CMV seropositive donor; assay: Cytomegalovirus (CMV) antigen-specific T cell functional assay; type: cell-based, human
Procedure: Peripheral blood mononuclear cells (PBMC) obtained from CMV seropositive donor were thawed and CMV lysate added at 1 μg/mL to 250,000/well PBMC. […] In addition, the anti-PD-1 antibody alone was also tested. An Fc only molecule was also tested as control. Supernatant was collected 48 hours after incubation to assay IL-2 by ELISA.
The multivalent variant CD80 IgSF domain fusion proteins were assessed to test for IL-2 production in the CMV assay substantially as described in Example 22. Exemplary multivalent variant CD80 IgSF domain fusion proteins generated as described above were tested at various concentrations from 100000 pM to 46 pM

[5] = 3 injections of 100 μg on Days 8, 10 and 12
[6] = re-challenged on day 49 with hPD-L1 MC38 cells

T1 sequence (Q9NZQ7 19-290): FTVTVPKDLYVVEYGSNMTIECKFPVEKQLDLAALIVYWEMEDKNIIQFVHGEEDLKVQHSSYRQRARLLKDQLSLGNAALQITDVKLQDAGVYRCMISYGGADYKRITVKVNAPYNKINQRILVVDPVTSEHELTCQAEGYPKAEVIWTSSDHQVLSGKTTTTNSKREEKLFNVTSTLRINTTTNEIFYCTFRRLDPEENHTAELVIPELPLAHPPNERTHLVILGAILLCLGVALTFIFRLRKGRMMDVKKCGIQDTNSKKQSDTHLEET

“H18Y/A26E/E35D/M47L/V68M/A71G/D90G: variant CD80 IgV-Fc (inert), IgV SEQ ID NO:491” was tested, and the antitumor activity ([1]; coadministration with anti-CD28 or anti-PD-L1) was “coadministration with either anti-CD28 or anti-PD-L1 reduced the antitumor activity”, the antitumor activity ([1]; monotherapy 100 μg IP) was “demonstrated activity superior to PD-L1 blockade alone” and the “blocking of binding of PD-1 to PD-L1” value (PD-L1/PD-1 interaction) was “antagonize or block binding of PD-1 to PD-L1”. For the same substance, the “percentages of CD8+ T cells in TIL and LN” value (MC38 hPD-L1 tumor cells [2]) was “significantly greater”, the “mice with no detectable tumors (tumor-free) upon completion of the study” value (MC38 hPD-L1 tumor cells [3]; 100 μg on days 7, 9 and 11, 11 mice per group) was 8 mice and the “tumor-free mice at day 35” value (MC38 hPD-L1 tumor cells [3]; [5]) was 6/13. The “tumor-free mice on Day 18” value (MC38 hPD-L1 tumor cells [3]; [5]) was 6/13, the “tumor growth / tumor volume” value (MC38 hPD-L1 tumor cells [3]; i.p. dosing, compared to Fc control or anti-PD-L1) was “greater decrease in the median and mean tumor volumes” and the “tumor-free mice after re-challenge, day 59” value (MC38 hPD-L1 tumor cells [3]; [6]) was 8/8. For the same substance, the “tumor-free mice after re-challenge, day 63” value (MC38 hPD-L1 tumor cells [3]; [6]) was “tumor-free”, the “tumor growth over time” value (huPD-L1/MC38 cells; in combination with anti-CTLA-4) was “significantly greater reduction in tumor growth over time was observed than with either agent alone” and the antitumor activity (huPD-L1/MC38 cells; monotherapy) was “had potent antitumor activity”. For the same substance, the “PD-L1 dependent CD28 costimulation (luciferase activity)” value (CD28) was “induced PD-L1 dependent CD28 costimulation in a dose-dependent manner”, the IL-2 production ([4]; alone, 48 hours, FIG. 23) was “showed augmentation of IL-2 production compared to the Fc only control” and the IL-2 production ([4]; in combination with 50 nM anti-PD-1 antibody (nivolumab)) was “greater increase in IL-2 production compared to levels of IL-2 production in the presence of either molecule alone”.
